Assay results as given in patent publication US4100291A, “Novel 1,4-benzodioxanes” (Roussel Uclaf, priority 1976, dated 1978).
Counter-ions that a name gives are not always drawn.

Columns and labels:
[1] = Acute toxicity in mice, intraperitoneal (Table I); settings: mouse, in vivo, ip, suspension in carboxymethylcellulose, observed one week
Text: The results are in Table I.

[2] = tested on: carotidine arterial pressure; test: Hypotensive activity in anesthetized rats, intravenous (Table II); format: in vivo, male rats of the Sprague-Dawley SPF strain; settings: for % Variation in pressure: compared to initial carotid arterial pressure; for Duration of Activity: time for pressure to return to initial value
Description: The hypotensive activity was determined on male rats of the Sprague-Dawley SPF strain weighing about 300 g which had been anestesized with nembutal (50 mg/kg intraveinously). The product was administered intraveinously by the jugular vein and the carotidine arterial pressure was measured before and after the administration of the test product. Table II reports the variations expressed in percent of arterial pressure after administration of the test product as compared to the initial arterial pressure as well as the time necessary for the pressure to return to the initial value.

[3] = tested on: arterial pressure measured at the rat's tail; test: Antihypertensive activity in spontaneous hypertensive rats, oral (Table III); format: in vivo, spontaneous hypertendus male rats of the Okamoto strain
Description: The antihypertensive activity was determined on spontaneous hypertendus male rats of the Okamoto strain 8 weeks old and the test products were orally administered daily for 9 days. The arterial pressure was measured at the rat's tail by means of a pneumatic collar connected to an electronic transducer of pressure.

[4] = daily dose 50 mg/kg oral, 1st Day, 1 hr after 1st ad.
[5] = daily dose 50 mg/kg oral, 1st Day, 4 hr. after

SMILES	LD50 at 168 h [1]	% Variation in pressure ([2]; 1 mg/kg)	Duration of Activity ([2]; 1 mg/kg)	% Pressure variation [3, 4]	% Pressure variation [3, 5]	also measured
OC(CN1CCC(c2c[nH]c3ccccc23)CC1)C1COc2ccccc2O1 (racemic) [Example 1, (d,l) erythro α-(2,3-dihydro-1,4-benzodioxin-2-yl)-4-([1H]-indol-3-yl)-1-piperidine-ethanol hydrochloride]	~100 mg/kg	-25%	45 min	-11%	-12%	% Variation in pressure ([2]; 0.1 mg/kg): -10%; Duration of Activity ([2]; 0.1 mg/kg): 30 min; % Pressure variation ([3]; daily dose 50 mg/kg oral for 9 days, 10th Day, 24 hr. after 1st ad. (so in the source)): -15%
COc1ccc2[nH]cc(C3CCN(CC(O)C4COc5ccccc5O4)CC3)c2c1 (single isomer, unassigned) [Example 2 isomer A, isomer A of (dl) α-(2,3-dihydro-1,4-benzodioxin-2-yl)-4-(5-methoxy-[1H]-indol-3-yl)-1-piperidine-ethanol]	~500 mg/kg	–	60 min	–	–	% Variation in pressure ([2]; 1 mg/kg, listed as 2 isomer A): -14%
COc1ccc2[nH]cc(C3CCN(CC(O)C4COc5ccccc5O4)CC3)c2c1 (single isomer, unassigned) [Example 2 isomer B, isomer B of (dl) α-(2,3-dihydro-1,4-benzodioxin-2-yl)-4-(5-methoxy-[1H]-indol-3-yl)-1-piperidine-ethanol]	–	–	60 min	–	–	% Variation in pressure ([2]; 1 mg/kg, listed as 2 isomer B): -20%
COc1ccc2c(C3CCN(CC(O)C4COc5ccccc5O4)CC3)c(C)[nH]c2c1.Cl (stereo not drawn) [Example 3, α-(2,3-dihydro-1,4-benzodioxin-2-yl)-4-(6-methoxy-2-methyl-[1H]-indol-3-yl)-1-piperidine-ethanol hydrochloride]	–	–	60 min	-26%	-27%	% Variation in pressure ([2]; 10 mg/kg): -25%; Duration of Activity ([2]; 10 mg/kg): 60 min
OC(CN1CC=C(c2c[nH]c3ccccc23)CC1)C1COc2ccccc2O1 (stereo not drawn) [Example 4, α-(2,3-dihydro-1,4-benzodioxin-2-yl)-4-([1H]-indol-3-yl)-1,2,3,6-tetrahydro-1-pyridine-ethanol]	–	–	–	-10%	-18%	–
Cn1cc(C2CCN(CC(O)C3COc4ccccc4O3)CC2)c2ccccc21 (stereo not drawn) [Example 5, α-(2,3-dihydro-1,4-benzodioxin-2-yl)-4-(1-methyl-[1H]-indol-3-yl)-1-piperidine-ethanol]	~250 mg/kg	-10%	30 min	–	–	–
